This note sets out measurements from patent US20250353891A1 (MEDIMMUNE LIMITED, priority 2022, published 2025).

The target in test [1] is human GLP-1 receptor (hGLP-1R) (Homo sapiens, UniProt P43220). As to the kind of experiment: cAMP production (HTRF) in CHO cells expressing hGLP-1R. Particulars: for EC50: geometric mean, read-out: hGLP-1R EC50; for % Relative Potency Ratio: % GLP-1R activity relative to GLP-1 / % GlucR activity relative to glucagon. The test is classed as cell-based. Further details: expressed in transfected cells. The gist of the method:
(§1)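 Cells were resuspended in assay buffer at batch-optimized density, typically 1×10^5 cells/mL for hGLP-1R and 2×10^5 cells/mL for hGCGR. After 30 min incubation at room temperature with compound, cAMP was measured by two-step HTRF. EC50 values came from 4-parameter logistic fits of % Delta F.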

For test [2], the target named is human glucagon receptor (hGCGR) (Homo sapiens, UniProt P47871). Briefly: cAMP production (HTRF) in CHO cells expressing hGCGR. The test is classed as cell-based. The arrangement: expressed in transfected cells. The conditions noted are these: geometric mean, read-out: hGluc-R EC50. The essentials:
as §1

Where [3] appears, read: Table 6, peptides modified at position 17, cAMP in CHO hGLP-1R cells.
The mark [4] stands for this setting: Table 6, peptides modified at position 17, cAMP in CHO hGCGR cells.
Setting [5] is: Table 7, peptides modified at position 20, cAMP in CHO hGLP-1R cells.
[6] abbreviates: Table 7, peptides modified at position 20, cAMP in CHO hGCGR cells.

Like-named read-outs stand apart in the source and are kept apart here. Starred links: 1 amine or outer side, 2 acyl side, 3 side chain; linkers in the order of their positions; H or OH if unused. Non-standard residues stand in square brackets, D forms with d. Residues, ends and D or L forms follow the SMILES beside them. Groups on a side chain read outwards from the residue. *: point of attachment. C20 diacid = O=C(O)CCCCCCCCCCCCCCCCCCC(=O)*; C18 diacid = O=C(O)CCCCCCCCCCCCCCCCC(=O)*; γGlu = O=C(O)[C@H](CCC(=O)[*:2])N[*:1]; Stearoyl = CCCCCCCCCCCCCCCCCC(=O)*; αMeF = C[C@](N)(Cc1ccccc1)C(=O)O; Ac4c = NC1(C(=O)O)CCC1; PEG2 = NCCOCCOCCC(=O)O; AEEA = NCCOCCOCC(=O)O; Aib = CC(C)(N)C(=O)O

Chain of human glucagon receptor (hGCGR) (P47871 26-477): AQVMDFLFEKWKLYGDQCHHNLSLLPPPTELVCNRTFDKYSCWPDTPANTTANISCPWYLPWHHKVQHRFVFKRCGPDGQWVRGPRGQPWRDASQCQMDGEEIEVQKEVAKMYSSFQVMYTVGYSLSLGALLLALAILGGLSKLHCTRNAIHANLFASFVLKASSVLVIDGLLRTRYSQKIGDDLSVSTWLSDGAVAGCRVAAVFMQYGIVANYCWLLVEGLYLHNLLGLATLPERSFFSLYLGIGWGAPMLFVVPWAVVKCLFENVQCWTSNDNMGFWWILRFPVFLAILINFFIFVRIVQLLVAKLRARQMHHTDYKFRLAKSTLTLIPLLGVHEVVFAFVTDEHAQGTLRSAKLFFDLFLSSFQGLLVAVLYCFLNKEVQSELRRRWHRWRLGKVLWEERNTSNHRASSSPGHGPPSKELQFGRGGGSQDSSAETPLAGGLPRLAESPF
Chain of human GLP-1 receptor (hGLP-1R) (P43220 24-463): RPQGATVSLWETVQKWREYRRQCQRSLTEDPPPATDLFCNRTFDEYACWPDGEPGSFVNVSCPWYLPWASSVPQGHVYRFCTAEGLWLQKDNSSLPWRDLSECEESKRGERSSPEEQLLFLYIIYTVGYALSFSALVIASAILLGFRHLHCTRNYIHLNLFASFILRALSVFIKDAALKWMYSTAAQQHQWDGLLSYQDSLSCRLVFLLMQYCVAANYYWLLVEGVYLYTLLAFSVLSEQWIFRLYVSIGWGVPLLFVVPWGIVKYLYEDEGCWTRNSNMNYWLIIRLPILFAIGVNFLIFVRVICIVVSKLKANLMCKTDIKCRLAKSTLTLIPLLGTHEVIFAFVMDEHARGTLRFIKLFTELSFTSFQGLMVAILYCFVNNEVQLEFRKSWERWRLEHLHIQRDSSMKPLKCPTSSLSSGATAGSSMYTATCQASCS

For the compound `CC(C)C[C@H](NC(=O)[C@H](Cc1c[nH]c2ccccc12)NC(=O)[C@H](CCC(N)=O)NC(=O)[C@@H](NC(=O)[C@H](Cc1ccccc1)NC(=O)[C@H](CC(=O)O)NC(=O)[C@H](CCCNC(=N)N)NC(=O)[C@H](C)NC(=O)[C@H](C)NC(=O)[C@H](CCCCNC(=O)COCCOCCNC(=O)COCCOCCNC(=O)CC[C@H](NC(=O)CCCCCCCCCCCCCCCCC(=O)O)C(=O)O)NC(=O)[C@@H](NC(=O)[C@H](CC(=O)O)NC(=O)[C@H](CC(C)C)NC(=O)[C@](C)(Cc1ccccc1)NC(=O)[C@H](CCCCN)NC(=O)[C@H](CO)NC(=O)[C@@H](NC(=O)[C@H](CC(=O)O)NC(=O)[C@H](CO)NC(=O)[C@@H](NC(=O)[C@H](Cc1ccccc1)NC(=O)[C@@H](NC(=O)CNC(=O)[C@H](CCC(N)=O)NC(=O)C(C)(C)NC(=O)[C@@H](N)Cc1c[nH]cn1)[C@@H](C)O)[C@@H](C)O)C(C)C)[C@@H](C)O)C(C)C)C(=O)N[C@@H](CC(C)C)C(=O)N[C@@H](CCC(=O)O)C(=O)NC(C)(C)C(=O)NCC(N)=O` [Peptide 514] (H-H[Aib]QGTFTSDVSK[αMeF]LDTK([AEEA-AEEA-γGlu-C18 diacid])AARDFVQWLLE[Aib]G-NH2; N-terminus assumed), the values for the EC50 in test [1] (setting [3]) and in test [2] (setting [4]) were 0.0767 nM and 1.37 nM, respectively. Besides, the “% Relative Potency Ratio” value in test [1] (Table 6) is on record as 35.4.
As for `CC[C@H](C)[C@H](NC(=O)[C@H](CO)NC(=O)[C@H](CCCCNC(=O)COCCOCCNC(=O)COCCOCCNC(=O)CC[C@H](NC(=O)CC[C@H](NC(=O)CCCCCCCCCCCCCCCCC(=O)O)C(=O)O)C(=O)O)NC(=O)[C@@H](NC(=O)[C@H](Cc1ccccc1)NC(=O)[C@H](CC(=O)O)NC(=O)[C@H](CCC(N)=O)NC(=O)[C@H](C)NC(=O)[C@H](C)NC(=O)[C@H](CCCNC(=N)N)NC(=O)[C@H](CO)NC(=O)[C@H](CC(=O)O)NC(=O)[C@H](CC(C)C)NC(=O)[C@](C)(Cc1ccccc1)NC(=O)[C@H](CCCCN)NC(=O)[C@H](CO)NC(=O)[C@@H](NC(=O)[C@H](CC(=O)O)NC(=O)[C@H](CO)NC(=O)[C@@H](NC(=O)[C@](C)(Cc1ccccc1)NC(=O)[C@H](CO)NC(=O)CNC(=O)[C@H](Cc1c[nH]cn1)NC(=O)C(C)(C)NC(=O)[C@@H](N)Cc1c[nH]cn1)[C@@H](C)O)C(C)C)C(C)C)C(=O)N[C@@H](C)C(=O)N[C@@H](CC(N)=O)C(=O)N[C@H](C(=O)NCC(=O)NCC(N)=O)[C@@H](C)O` [Peptide 381] (H-H[Aib]HGS[αMeF]TSDVSK[αMeF]LDSRAAQDFVK([AEEA-AEEA-γGlu-γGlu-C18 diacid])SIANTGG-NH2; N-terminus assumed), the “% Relative Potency Ratio” value in test [1] was found to be 14.9. Besides, the half-maximal effective concentration (EC50) worked out at 0.174 nM in test [1] (cAMP, CHO cells, 0.1% BSA) and 1.31 nM in test [2] (cAMP, CHO cells, 0.1% BSA).
Regarding `CC[C@H](C)[C@H](NC(=O)C(C)(C)NC(=O)[C@H](CCC(N)=O)NC(=O)[C@@H](NC(=O)[C@](C)(Cc1ccccc1)NC(=O)[C@H](CC(=O)O)NC(=O)[C@H](CCCCNC(=O)COCCOCCNC(=O)COCCOCCNC(=O)CC[C@H](NC(=O)CCCCCCCCCCCCCCCCC(=O)O)C(=O)O)NC(=O)[C@H](C)NC(=O)[C@H](C)NC(=O)[C@H](CCCNC(=N)N)NC(=O)[C@H](CO)NC(=O)[C@H](CC(=O)O)NC(=O)[C@H](CC(C)C)NC(=O)[C@](C)(Cc1ccccc1)NC(=O)[C@H](CCCCN)NC(=O)[C@H](CO)NC(=O)[C@@H](NC(=O)[C@H](CC(=O)O)NC(=O)[C@H](CO)NC(=O)[C@@H](NC(=O)[C@](C)(Cc1ccccc1)NC(=O)[C@H](CO)NC(=O)CNC(=O)[C@H](CCC(N)=O)NC(=O)C1(NC(=O)[C@@H](N)Cc2c[nH]cn2)CCC1)[C@@H](C)O)C(C)C)C(C)C)C(=O)N[C@@H](C)C(=O)N[C@@H](CC(N)=O)C(=O)N[C@H](C(N)=O)[C@@H](C)O` [Peptide 328] (H-H[Ac4c]QGS[αMeF]TSDVSK[αMeF]LDSRAAK([AEEA-AEEA-γGlu-C18 diacid])D[αMeF]VQ[Aib]IANT-NH2; N-terminus assumed), the half-maximal effective concentration (EC50) in test [1] (setting [5]) was 0.0154 nM; in test [2] (setting [6]), 1.7 nM. Moreover, the “% Relative Potency Ratio” value in test [1] (Table 7) amounted to 218.8.
`CCCCCCCCCCCCCCCCCC(=O)N[C@@H](CCC(=O)N[C@@H](CCC(=O)NCCOCCOCCC(=O)NCCOCCOCCC(=O)NCCCC[C@H](NC(=O)[C@H](CO)NC(=O)[C@H](CC(=O)O)NC(=O)[C@H](CC(C)C)NC(=O)C(C)(C)NC(=O)[C@H](CCCCN)NC(=O)[C@H](CO)NC(=O)[C@@H](NC(=O)[C@H](CC(=O)O)NC(=O)[C@H](CO)NC(=O)[C@@H](NC(=O)[C@](C)(Cc1ccccc1)NC(=O)[C@H](CO)NC(=O)CNC(=O)[C@H](CCC(N)=O)NC(=O)C(C)(C)NC(=O)[C@@H](N)Cc1c[nH]cn1)[C@@H](C)O)C(C)C)C(=O)N[C@@H](C)C(=O)N[C@@H](C)C(=O)N[C@@H](CCC(N)=O)C(=O)N[C@@H](CC(=O)O)C(=O)N[C@@](C)(Cc1ccccc1)C(=O)N[C@H](C(=O)N[C@@H](CCC(N)=O)C(=O)NC(C)(C)C(=O)N[C@H](C(=O)N[C@@H](C)C(=O)N[C@@H](CC(N)=O)C(N)=O)[C@@H](C)CC)C(C)C)C(=O)O)C(=O)O` [Peptide 100] (H-H[Aib]QGS[αMeF]TSDVSK[Aib]LDSK([PEG2-PEG2-γGlu-γGlu-Stearoyl])AAQD[αMeF]VQ[Aib]IAN-NH2; N-terminus assumed): the “% Relative Potency Ratio” value in test [1] (Table 6) stood at 310.3. Further, in test [2] (setting [4]), the EC50 came out at 0.0405 nM.
In the case of `CC(C)C[C@H](NC(=O)[C@H](Cc1c[nH]c2ccccc12)NC(=O)[C@H](C)NC(=O)[C@@H](NC(=O)[C@H](Cc1ccccc1)NC(=O)[C@H](CC(=O)O)NC(=O)[C@H](CCC(N)=O)NC(=O)[C@H](C)NC(=O)[C@H](CCCNC(=N)N)NC(=O)[C@H](CCCCNC(=O)COCCOCCNC(=O)COCCOCCNC(=O)CC[C@H](NC(=O)CCCCCCCCCCCCCCCCC(=O)O)C(=O)O)NC(=O)[C@H](CO)NC(=O)[C@H](CC(=O)O)NC(=O)[C@H](CC(C)C)NC(=O)[C@](C)(Cc1ccccc1)NC(=O)[C@H](CCCCN)NC(=O)[C@H](CO)NC(=O)[C@@H](NC(=O)[C@H](CC(=O)O)NC(=O)[C@H](CO)NC(=O)[C@@H](NC(=O)[C@H](Cc1ccccc1)NC(=O)[C@@H](NC(=O)CNC(=O)[C@H](CCC(N)=O)NC(=O)C(C)(C)NC(=O)[C@@H](N)Cc1c[nH]cn1)[C@@H](C)O)[C@@H](C)O)C(C)C)C(C)C)C(=O)N[C@@H](CC(C)C)C(=O)N[C@@H](CCC(=O)O)C(=O)NC(C)(C)C(=O)NCC(=O)O` [Peptide 141] (H-H[Aib]QGTFTSDVSK[αMeF]LDSK([AEEA-AEEA-γGlu-C18 diacid])RAQDFVAWLLE[Aib]G-OH; N-terminus assumed), the EC50 came to 0.264 nM in test [1] (setting [3]) and 0.392 nM in test [2] (setting [4]). The “% Relative Potency Ratio” value in test [1] (Table 6) worked out at 2.9.
As to `CC[C@H](C)[C@H](NC(=O)C(C)(C)NC(=O)[C@H](CCC(N)=O)NC(=O)[C@@H](NC(=O)[C@](C)(Cc1ccccc1)NC(=O)[C@H](CC(=O)O)NC(=O)[C@H](CCCCNC(=O)CC[C@H](NC(=O)CCCCCCCCCCCCCCCCCCC(=O)O)C(=O)O)NC(=O)[C@H](C)NC(=O)[C@H](C)NC(=O)[C@H](CCCNC(=N)N)NC(=O)[C@H](CO)NC(=O)[C@H](CC(=O)O)NC(=O)[C@H](CC(C)C)NC(=O)[C@](C)(Cc1ccccc1)NC(=O)[C@H](CCCCN)NC(=O)[C@H](CO)NC(=O)[C@@H](NC(=O)[C@H](CC(=O)O)NC(=O)[C@H](CO)NC(=O)[C@@H](NC(=O)[C@](C)(Cc1ccccc1)NC(=O)[C@H](CO)NC(=O)CNC(=O)[C@H](Cc1c[nH]cn1)NC(=O)C(C)(C)NC(=O)[C@@H](N)Cc1c[nH]cn1)[C@@H](C)O)C(C)C)C(C)C)C(=O)N[C@@H](C)C(=O)N[C@@H](CC(N)=O)C(=O)N[C@H](C(N)=O)[C@@H](C)O` [Peptide 276] (H-H[Aib]HGS[αMeF]TSDVSK[αMeF]LDSRAAK([γGlu-C20 diacid])D[αMeF]VQ[Aib]IANT-NH2), the figures for the EC50 in test [1] (setting [5]) and in test [2] (setting [6]) were 0.143 nM and 0.0914 nM, respectively. In addition, the “% Relative Potency Ratio” value in test [1] (Table 7) came out at 1.3.
